These results are taken from US20240116845A1, “INDENE COMPOUNDS, PHARMACEUTICAL COMPOSITIONS THEREOF, AND THEIR THERAPEUTIC APPLICATIONS” (NucMito Pharmaceuticals Co., Ltd., priority 2021, published 2024).

Where only a bound is given, the exact number is not on record here.

This test has as its system alpha-smooth muscle actin (α-SMA). Nature of the test: Inhibition of TGF-β induced expression of alpha-smooth muscle actin in CFSC cells (western blot). The following applies: compound at 10 μM, TGF-β (10 ng/mL), 24 hours. Format: cell-based. How it is done:
The ability of a compound to inhibit the TGF-β induced expression of alpha-smooth muscle actin (α-SMA) was evaluated in CCl4-treated fat storing (CFSC) cells. α-SMA is considered as a reliable marker of hepatic stellate cell activation and a key biomarker for liver fibrosis.
CFSC cells maintained in a DMEM medium supplemented with 10% fetal bovine serum were seeded to 12-well culture dishes and grown to a confluence of 60-70% the next day. Culture was changed to a serum-free DMEM medium and the cells were treated with the compound at 10 μM in the presence of TGF-β (10 ng/mL). The cells were incubated for another 24 hours. All culture was maintained at 37° C. in 5% carbon dioxide.
An NP-40 lysate solution (50 mM Tris, pH 7.4, 150 mM NaCl, 1% NP-40) with EDTA free cocktail added was used to lyse the cells on ice for 30 min. The lysate was collected and centrifuged at 4° C. for 10 min at 12,000 rpm. The pellet was discarded and the supernatant was transferred to a new tube. The cell lysate was loaded with 5× loading buffer and boiled for 10 min, resolved by 10% SDS-polyacrylamide gel electrophoresis (SDS-PAGE), and transferred to a PVDF membrane. The membrane was blocked with 5% skim milk in Tris-buffered saline and TWEEN® 20 (TBST; 10 mM Tris-HCl, pH 8.0, 150 mM NaCl, 0.1% TWEEN® 20) for 1 h at room temperature and then incubated with α-SMA and β-actin antibodies overnight at 4° C. After washing twice with TBST, the membrane was probed with a […] anti-immunoglobulin (1:5000 dilution) for 1 h at room temperature. After two subsequent rinses in TBST, immunoreactive products were reacted with ECL and visualized by a UVP CHEMSTUDIO™ imaging system. The western blotting bands are quantitated using an ImageJ software. The percentage of inhibition was obtained by calculating the percentage decrease in the band intensity compared to the one treated with TGF-β only.
The results are summarized in Table 1, where A represents a value no less than 80/% inhibition, B represents a value less than 80% but no less than 50% inhibition, C represents a value less than 50% but no less than 30% inhibition, and D represents a value less than 30% inhibition with a compound at 10 μM.
Regarding `CC1=C(CC(=O)O)c2cc(F)ccc2/C1=C\c1ccc(Oc2ccc(C(F)(F)F)cc2)cc1` [Compound D7, 2-[(1Z)-5-Fluoro-2-methyl-1-({4-[4-(trifluoromethyl)phenoxy]phenyl}-methylidene)-1H-inden-3-yl]acetic acid], the inhibition at 10 µM is at least 80%. The same measure for `CC(C)CC1=C(CC(=O)O)c2cc(F)ccc2/C1=C\c1ccc(Oc2ccc(F)cc2)cc1` [Compound D8, 2-[(1Z)-5-Fluoro-1-{[4-(4-fluorophenoxy)phenyl]methylidene}-2-(2-methyl-propyl)-1H-inden-3-yl]acetic acid]: at least 80%. Regarding `COc1ccc2c(c1)C(CC(=O)O)=C(C)/C2=C/c1ccc(Oc2ccc(F)cc2)cc1` [Compound D10, 2-[(1Z)-5-Methoxy-2-methyl-1-({4-[4-fluorophenoxy]phenyl}methylidene)-1H-inden-3-yl]acetic acid], the inhibition at 10 µM was at least 80%. The result for `COc1ccc2c(c1)C(CC(=O)O)=C(C)/C2=C/c1ccc(Oc2ccccc2)cc1` [Compound D11, 2-[(1Z)-5-Methoxy-2-methyl-1-[(4-phenoxyphenyl)methylidene]-1H-inden-3-yl]acetic acid] reads at least 80%; that for `CC1=C(CC(=O)O)c2cc(C(C)(C)C)ccc2/C1=C\c1ccc(Oc2ccc(F)cc2)cc1` [Compound D17, 2-[(1Z)-5-Tert-butyl-2-methyl-1-({4-[4-fluorophenoxy]phenyl}methylidene)-1H-inden-3-yl]acetic acid], at least 80%; that for `CC1=C(CC(=O)O)c2cc(F)ccc2/C1=C\c1cccc(Oc2ccccc2)c1` [Compound D18, (Z)-2-(5-Fluoro-2-methyl-1-(3-phenoxybenzylidene)-1H-inden-3-yl)acetic acid], at least 80%. The same measure for `CC1=C(CC(=O)O)c2cc(F)ccc2/C1=C\c1cccc(Oc2ccc(C#N)cc2)c1` [Compound D24, 2-[(1Z)-5-Fluoro-2-methyl-1-({3-[4-cyanophenoxy]phenyl}methylidene)-1H-inden-3-yl]acetic acid]: at least 80%; for `COc1ccc2c(c1)/C(=C\c1ccc(Oc3ccccc3)cc1)C(C)=C2CC(=O)O` [Compound D29, 2-[(1Z)-6-Methoxy-1-(4-(phenoxy)benzylidene)-2-methyl-1H-inden-3-yl]-acetic acid]: 50 to 80%. In turn, `COc1ccc2c(c1)/C(=C\c1cccc(Oc3ccccc3)c1)C(C)=C2CC(=O)O` [Compound D35, 2-[(1Z)-6-Methoxy-1-(3-(phenoxy)benzylidene)-2-methyl-1H-inden-3-yl]-acetic acid] came in with an inhibition at 10 µM below 30%. The result for `CC1=C(CC(=O)O)c2cc(F)ccc2/C1=C\c1cccc(N(C)c2ccccc2)c1` [Compound D37, 2-[(1Z)-5-Fluoro-2-methyl-1-({3-[methyl(phenyl)amino]phenyl}methylidene)-1H-inden-3-yl]acetic acid] reads at least 80%; that for `CC1=C(CC(=O)O)c2cc(F)ccc2/C1=C\c1ccc(C2=CCCC2)cc1` [Compound D39, (Z)-2-(1-(4-(Cyclopent-1-en-1-yl)benzylidene)-5-fluoro-2-methyl-1H-inden-3-yl)acetic acid], 50 to 80%; that for `CC1=C(CC(=O)NO)c2cc(F)ccc2/C1=C\c1ccc(C2=CCCC2)cc1` [Compound D40, (Z)-2-(1-(4-(Cyclopent-1-en-1-yl)benzylidene)-5-fluoro-2-methyl-1H-inden-3-yl)-N-hydroxyacetamide], 50 to 80%. The same measure for `CC1=C(CC(N)=O)c2cc(F)ccc2/C1=C\c1ccc(C(C)(C)C)cc1` [Compound D41, (Z)-2-(1-(4-(Tert-butyl)benZylidene)-5-fluoro-2-methyl-1H-inden-3-yl)acetamide]: at least 80%; for `CC1=C(CC(=O)O)c2cc(F)ccc2/C1=C/c1ccc(Oc2ccc(F)cc2)cc1` [Compound E2, 2-[(1E)-5-Fluoro-2-methyl-1-({4-[4-fluorophenoxy]phenyl}methylidene)-1H-inden-3-yl]acetic acid]: at least 80%.

With `CC1=C(CC(=O)O)c2cc(F)ccc2/C1=C/c1ccc(Oc2ccccc2)cc1` [Compound E3, 2-[(1E)-5-Fluoro-2-methyl-1-[(4-phenoxyphenyl)methylidene]-1H-inden-3-yl]acetic acid], the inhibition at 10 µM is at least 80%. The result for `CC1=C(CC(=O)NO)c2cc(F)ccc2/C1=C/c1ccc(C(C)(C)C)cc1` [Compound E6, (E)-2-(1-(4-(Tert-butyl)benzylidene)-5-fluoro-2-methyl-1H-inden-3-yl)-N-hydroxyacetamide] reads 50 to 80%.
